The record followed here is ChEMBL document CHEMBL1201862, “PubChem BioAssay data set” (2004).

Test [1] addresses NACHT, LRR and PYD domains-containing protein 1 (Homo sapiens, UniProt Q9C000). The experiment in a line: NALP1 inhibitors in yeast, dose response, luminescent (AID 488860). It counts as functional.
A further test has as its system Saccharomyces cerevisiae. The experiment in a line: S. cerevisiae Caspase-1/ASC signal blockers IC50, NALP1 inhibitor project selectivity test (AID 488863). It counts as functional, organism-based.
Test [2] addresses Voltage-dependent T-type calcium channel subunit alpha-1H (Homo sapiens, UniProt O95180). It is filed as functional.
The target in test [3] is G-protein coupled receptor 55 (Homo sapiens, UniProt Q9Y2T6). The experiment in a line: inhibition of LPI-stimulated GPR55 beta-arrestin translocation – imaging, U2OS, beta-arrestin-GFP, LPI agonist, primary screen (AID 2013).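 Further: antagonist potency measured as reduced agonist-driven arrestin aggregation.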 It counts as functional.
G-protein coupled receptor 55, sequence (Q9Y2T6 whole entry): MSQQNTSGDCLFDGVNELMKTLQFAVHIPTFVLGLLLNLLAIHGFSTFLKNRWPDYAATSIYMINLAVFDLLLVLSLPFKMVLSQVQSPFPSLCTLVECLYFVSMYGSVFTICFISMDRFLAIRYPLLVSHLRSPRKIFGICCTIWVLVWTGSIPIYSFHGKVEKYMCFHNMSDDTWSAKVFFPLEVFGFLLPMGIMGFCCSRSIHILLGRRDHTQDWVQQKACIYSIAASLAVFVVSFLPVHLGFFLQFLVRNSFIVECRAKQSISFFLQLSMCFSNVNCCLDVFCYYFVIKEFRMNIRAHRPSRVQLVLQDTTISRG
For test [4], the system named is Streptococcus sp. 'group A'. The experiment in a line: Streptococcus pyogenes SK(-)GAS viability under kanamycin – luminescence, BacTiterGlo, confirmation, counter-screen for streptokinase expression inhibitor project, dose response (AID 1900). It is filed as functional, organism-based.
The subject of a further test is Streptococcus. The test is described as follows: GAS UMAA2166 growth inhibition – luminescence, BacTiterGlo, counter-screen for streptokinase expression inhibitor project, dose response (AID 1915).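 Further: potency for reduction of bacterial viability or growth.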 It counts as functional, organism-based.
Test [5] can be described thus: blockers of bursicon-stimulated LGR2 cAMP reporter – cell-based, HEK293, CRE-luciferase reporter, cherry pick, set 2, dose response (AID 743343).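 Further: transfected cells were stimulated with diluted bursicon conditioned medium after compound addition.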 It counts as functional. In general terms: In a reporter assay the amount or activity of a reporter protein is the signal.
Another test concerns the target T1, CAAX prenyl protease 2 (Saccharomyces cerevisiae S288c, UniProt Q03530).
T1 sequence (Q03530 whole entry): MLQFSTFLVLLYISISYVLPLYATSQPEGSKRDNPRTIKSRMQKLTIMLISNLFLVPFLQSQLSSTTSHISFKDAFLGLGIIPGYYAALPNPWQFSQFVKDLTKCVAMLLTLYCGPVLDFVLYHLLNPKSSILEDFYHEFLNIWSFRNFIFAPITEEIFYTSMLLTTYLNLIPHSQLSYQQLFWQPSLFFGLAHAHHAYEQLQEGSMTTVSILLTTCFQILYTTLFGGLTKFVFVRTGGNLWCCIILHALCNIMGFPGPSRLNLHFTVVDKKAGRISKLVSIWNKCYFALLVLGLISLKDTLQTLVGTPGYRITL
It is filed as biochemical.

The nature of test [6]: viability loss in HEK293 cells – cell-based, plate reader, cherry-picked samples, cytotoxicity control, dose response (AID 743446). It counts as functional.
The nature of test [7]: blockade of melanocortin 4 receptor signaling – cell-based, plate reader, cherry pick, counter-screen for LGR2 antagonist project, dose response (AID 743444).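 Further: transfected HEK 293 cells stimulated with alpha-MSH peptide; potency of inhibitors of the alpha-MSH evoked signal.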 It counts as functional. (A counterscreen serves to expose hits that act by an unwanted route or on another target.)
The next test deals with T2, Streptokinase A (Streptococcus pyogenes serotype M1, UniProt P10520).
T2 sequence (P10520 whole entry): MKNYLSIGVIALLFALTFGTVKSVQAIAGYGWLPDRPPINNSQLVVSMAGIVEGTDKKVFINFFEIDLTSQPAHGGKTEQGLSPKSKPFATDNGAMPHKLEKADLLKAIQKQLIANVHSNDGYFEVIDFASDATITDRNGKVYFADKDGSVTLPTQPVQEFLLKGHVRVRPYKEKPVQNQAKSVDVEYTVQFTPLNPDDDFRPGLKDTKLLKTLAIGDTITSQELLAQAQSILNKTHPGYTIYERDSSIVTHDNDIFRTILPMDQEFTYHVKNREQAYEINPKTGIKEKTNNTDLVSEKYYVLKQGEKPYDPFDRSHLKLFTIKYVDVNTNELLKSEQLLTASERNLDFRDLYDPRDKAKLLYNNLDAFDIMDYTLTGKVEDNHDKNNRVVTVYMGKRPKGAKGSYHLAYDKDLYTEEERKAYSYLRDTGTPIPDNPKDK
The test is described as follows: viability-normalized secreted streptokinase activity reduction – plasminogen activation absorbance, OD405, dose response (AID 1914).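 Further: secreted streptokinase activity via plasminogen activation per viability signal from cell pellet.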 It counts as functional, Streptococcus pyogenes M1 GAS.

In a further test the target is Trypsin (Sus scrofa, UniProt P00761). The experiment in a line: trypsin protease activity blockade – biochemical, quenched peptide fluorescence, cherry-pick, selectivity assay for Rce1 protease inhibitor project, dose response (AID 488789).
Trypsin, sequence (P00761 whole entry): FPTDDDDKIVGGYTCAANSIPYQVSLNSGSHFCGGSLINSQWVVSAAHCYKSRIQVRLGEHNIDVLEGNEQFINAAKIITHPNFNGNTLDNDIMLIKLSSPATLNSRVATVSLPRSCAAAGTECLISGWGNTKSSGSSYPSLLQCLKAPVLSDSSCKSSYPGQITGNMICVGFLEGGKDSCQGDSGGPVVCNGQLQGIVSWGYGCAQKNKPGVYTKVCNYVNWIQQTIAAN
Test [8] in a line: A549 cell cytotoxicity, dose response, cytotoxicity control, plate reader, cherry-pick, antagonist series (AID 743412). It counts as functional, cell-based.
Test [9] is described as follows: toxicity toward HepG2 liver cells – cell-based, plate reader, cherry-pick, antagonist series, cytotoxicity control, dose response (AID 743416). It counts as functional.
Test [10] has as its target T3, Short transient receptor potential channel 4 (Mus musculus, UniProt Q9QUQ5).
T3 sequence (Q9QUQ5 whole entry): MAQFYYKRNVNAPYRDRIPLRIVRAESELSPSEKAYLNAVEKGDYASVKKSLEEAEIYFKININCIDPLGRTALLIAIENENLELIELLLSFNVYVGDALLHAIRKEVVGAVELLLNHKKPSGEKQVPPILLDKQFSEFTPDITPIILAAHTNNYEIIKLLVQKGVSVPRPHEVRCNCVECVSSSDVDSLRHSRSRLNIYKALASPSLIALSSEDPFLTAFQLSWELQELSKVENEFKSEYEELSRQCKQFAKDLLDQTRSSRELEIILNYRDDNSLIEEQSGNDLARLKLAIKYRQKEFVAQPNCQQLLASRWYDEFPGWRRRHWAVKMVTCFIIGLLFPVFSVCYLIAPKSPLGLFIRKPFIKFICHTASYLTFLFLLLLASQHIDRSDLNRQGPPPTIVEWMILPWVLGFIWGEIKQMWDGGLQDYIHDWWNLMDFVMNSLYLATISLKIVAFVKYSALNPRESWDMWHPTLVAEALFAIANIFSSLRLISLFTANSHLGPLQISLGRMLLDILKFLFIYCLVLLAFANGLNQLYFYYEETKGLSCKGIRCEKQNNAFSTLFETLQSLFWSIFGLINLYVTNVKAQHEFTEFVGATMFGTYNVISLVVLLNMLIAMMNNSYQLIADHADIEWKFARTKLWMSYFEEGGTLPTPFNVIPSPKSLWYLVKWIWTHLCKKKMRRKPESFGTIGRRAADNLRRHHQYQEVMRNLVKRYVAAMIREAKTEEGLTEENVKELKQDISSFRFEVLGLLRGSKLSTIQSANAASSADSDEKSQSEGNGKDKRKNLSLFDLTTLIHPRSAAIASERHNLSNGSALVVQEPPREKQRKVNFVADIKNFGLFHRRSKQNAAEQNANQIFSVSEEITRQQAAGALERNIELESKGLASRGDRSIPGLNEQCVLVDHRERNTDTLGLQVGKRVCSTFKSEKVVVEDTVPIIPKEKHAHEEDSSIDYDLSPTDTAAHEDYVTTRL
The test is described as follows: potentiation of DAMGO-evoked TRPC4 calcium signal – cell-based, HEK293 TRPC4/mu-opioid, Fluo-4 calcium, EC20 DAMGO, dose response (AID 434941).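 Further: HEK293 cells coexpressing TRPC4 and mu opioid receptor stimulated by EC20 DAMGO.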 It is filed as functional.

Test [11] in a line: protection from phage-mediated lysis, alamar blue read-out – E. coli UTI89, K1F phage, bacterial capsule biogenesis inhibitors (AID 488966). It counts as functional.
Test [12] deals with Polyadenylate-binding protein 1 (Homo sapiens, UniProt P11940). The experiment in a line: PABP inhibition in translation initiation, SAR follow-up (AID 435018). It is filed as functional.
Test [13] addresses Eukaryotic translation initiation factor 4H (Homo sapiens, UniProt Q15056). The test is described as follows: inhibitors of translation initiation factor eIF4H – SAR follow-up (AID 435011). It counts as functional.

Activity calls are given as the source filed them. A value given as a limit tells only on which side of the number the result lay.

Voltage-dependent T-type calcium channel subunit alpha-1H, sequence (O95180 whole entry): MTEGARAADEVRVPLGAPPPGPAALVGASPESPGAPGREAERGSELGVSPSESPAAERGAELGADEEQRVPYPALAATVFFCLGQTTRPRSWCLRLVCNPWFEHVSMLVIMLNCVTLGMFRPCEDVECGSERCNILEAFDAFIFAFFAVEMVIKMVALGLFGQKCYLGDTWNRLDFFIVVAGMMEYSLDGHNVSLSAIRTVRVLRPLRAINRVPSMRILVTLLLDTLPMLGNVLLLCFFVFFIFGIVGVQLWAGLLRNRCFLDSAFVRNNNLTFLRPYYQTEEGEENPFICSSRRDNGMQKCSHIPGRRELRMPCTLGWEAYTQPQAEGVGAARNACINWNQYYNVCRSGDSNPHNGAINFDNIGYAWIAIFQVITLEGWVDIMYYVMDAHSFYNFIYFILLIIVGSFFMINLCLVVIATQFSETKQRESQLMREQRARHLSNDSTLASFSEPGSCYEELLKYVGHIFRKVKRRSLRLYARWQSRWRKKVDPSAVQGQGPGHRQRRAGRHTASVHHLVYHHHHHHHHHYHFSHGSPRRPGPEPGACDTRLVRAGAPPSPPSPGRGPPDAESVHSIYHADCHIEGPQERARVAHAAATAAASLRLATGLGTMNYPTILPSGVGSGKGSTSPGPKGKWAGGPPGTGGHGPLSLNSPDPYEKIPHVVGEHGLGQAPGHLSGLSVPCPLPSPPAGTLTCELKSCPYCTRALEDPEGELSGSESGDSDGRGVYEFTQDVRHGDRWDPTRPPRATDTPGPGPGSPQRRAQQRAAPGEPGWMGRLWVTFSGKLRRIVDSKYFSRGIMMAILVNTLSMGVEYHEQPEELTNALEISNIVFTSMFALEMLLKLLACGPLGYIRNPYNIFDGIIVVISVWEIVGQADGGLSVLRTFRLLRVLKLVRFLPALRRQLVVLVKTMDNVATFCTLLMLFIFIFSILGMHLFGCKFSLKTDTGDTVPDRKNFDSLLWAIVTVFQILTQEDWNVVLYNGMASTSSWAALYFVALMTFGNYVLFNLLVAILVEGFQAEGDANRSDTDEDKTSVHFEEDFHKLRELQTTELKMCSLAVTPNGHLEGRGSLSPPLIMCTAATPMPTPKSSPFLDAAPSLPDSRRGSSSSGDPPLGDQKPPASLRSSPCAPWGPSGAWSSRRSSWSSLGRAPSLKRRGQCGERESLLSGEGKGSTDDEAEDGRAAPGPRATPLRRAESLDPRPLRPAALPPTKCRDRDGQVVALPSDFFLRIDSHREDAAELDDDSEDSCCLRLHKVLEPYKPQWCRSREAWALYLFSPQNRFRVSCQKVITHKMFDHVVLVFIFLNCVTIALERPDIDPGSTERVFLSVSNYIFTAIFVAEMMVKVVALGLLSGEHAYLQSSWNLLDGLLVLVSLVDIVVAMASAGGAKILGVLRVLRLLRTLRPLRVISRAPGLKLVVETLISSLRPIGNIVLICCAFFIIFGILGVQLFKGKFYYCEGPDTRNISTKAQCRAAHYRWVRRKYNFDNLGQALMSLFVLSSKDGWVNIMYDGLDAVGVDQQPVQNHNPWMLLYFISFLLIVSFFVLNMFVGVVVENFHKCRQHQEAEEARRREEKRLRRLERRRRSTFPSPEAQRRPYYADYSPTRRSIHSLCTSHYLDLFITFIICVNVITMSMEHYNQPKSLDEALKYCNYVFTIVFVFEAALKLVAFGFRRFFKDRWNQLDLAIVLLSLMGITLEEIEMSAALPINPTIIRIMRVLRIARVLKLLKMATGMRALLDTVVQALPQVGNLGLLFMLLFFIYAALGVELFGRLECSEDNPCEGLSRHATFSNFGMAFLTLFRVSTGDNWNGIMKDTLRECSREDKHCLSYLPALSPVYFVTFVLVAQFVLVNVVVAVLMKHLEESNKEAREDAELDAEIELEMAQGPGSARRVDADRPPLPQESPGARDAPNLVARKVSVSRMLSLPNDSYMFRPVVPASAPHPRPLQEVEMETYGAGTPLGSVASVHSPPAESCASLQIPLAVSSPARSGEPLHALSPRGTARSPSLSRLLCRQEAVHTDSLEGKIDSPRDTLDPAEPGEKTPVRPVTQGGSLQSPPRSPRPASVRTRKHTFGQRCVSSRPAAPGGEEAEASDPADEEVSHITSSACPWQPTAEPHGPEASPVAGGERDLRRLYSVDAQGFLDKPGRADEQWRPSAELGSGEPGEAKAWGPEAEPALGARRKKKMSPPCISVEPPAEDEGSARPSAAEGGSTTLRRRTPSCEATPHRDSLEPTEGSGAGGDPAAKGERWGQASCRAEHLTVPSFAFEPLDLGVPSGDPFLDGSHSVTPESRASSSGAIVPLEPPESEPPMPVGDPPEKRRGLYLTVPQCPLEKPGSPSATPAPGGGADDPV
NACHT, LRR and PYD domains-containing protein 1, sequence (Q9C000 1-1212 limits assumed): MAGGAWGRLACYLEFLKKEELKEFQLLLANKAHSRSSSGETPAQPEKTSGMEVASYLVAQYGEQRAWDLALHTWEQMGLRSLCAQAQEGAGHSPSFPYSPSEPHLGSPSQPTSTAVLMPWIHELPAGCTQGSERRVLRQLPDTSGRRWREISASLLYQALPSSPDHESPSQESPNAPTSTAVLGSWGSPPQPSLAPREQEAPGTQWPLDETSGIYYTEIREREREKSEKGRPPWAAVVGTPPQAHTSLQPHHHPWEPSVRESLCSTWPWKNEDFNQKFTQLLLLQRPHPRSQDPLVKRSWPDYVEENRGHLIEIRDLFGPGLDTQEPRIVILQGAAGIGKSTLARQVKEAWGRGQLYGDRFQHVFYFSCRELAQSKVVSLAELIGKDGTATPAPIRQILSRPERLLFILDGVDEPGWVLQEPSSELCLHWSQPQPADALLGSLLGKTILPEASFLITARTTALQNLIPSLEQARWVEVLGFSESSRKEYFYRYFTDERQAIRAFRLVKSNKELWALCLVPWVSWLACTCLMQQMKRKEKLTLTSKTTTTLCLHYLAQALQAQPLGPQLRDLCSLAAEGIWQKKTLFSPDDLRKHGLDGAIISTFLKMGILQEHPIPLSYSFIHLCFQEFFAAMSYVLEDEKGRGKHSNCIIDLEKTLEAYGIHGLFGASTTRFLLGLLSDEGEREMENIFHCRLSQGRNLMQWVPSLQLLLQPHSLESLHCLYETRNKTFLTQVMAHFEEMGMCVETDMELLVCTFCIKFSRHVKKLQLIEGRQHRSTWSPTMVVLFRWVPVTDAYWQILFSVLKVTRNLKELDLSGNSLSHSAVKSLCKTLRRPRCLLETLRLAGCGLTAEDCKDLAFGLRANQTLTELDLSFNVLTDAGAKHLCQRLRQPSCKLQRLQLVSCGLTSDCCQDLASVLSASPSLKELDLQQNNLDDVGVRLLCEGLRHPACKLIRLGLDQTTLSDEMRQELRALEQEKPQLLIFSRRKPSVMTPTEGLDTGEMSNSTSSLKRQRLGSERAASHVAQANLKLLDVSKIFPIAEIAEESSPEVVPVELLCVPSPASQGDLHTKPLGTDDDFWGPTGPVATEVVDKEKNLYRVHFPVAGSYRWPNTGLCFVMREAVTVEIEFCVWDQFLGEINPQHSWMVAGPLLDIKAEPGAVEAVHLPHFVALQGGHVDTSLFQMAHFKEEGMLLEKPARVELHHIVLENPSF
NACHT, LRR and PYD domains-containing protein 1, sequence (Q9C000 1213-1473 limits assumed): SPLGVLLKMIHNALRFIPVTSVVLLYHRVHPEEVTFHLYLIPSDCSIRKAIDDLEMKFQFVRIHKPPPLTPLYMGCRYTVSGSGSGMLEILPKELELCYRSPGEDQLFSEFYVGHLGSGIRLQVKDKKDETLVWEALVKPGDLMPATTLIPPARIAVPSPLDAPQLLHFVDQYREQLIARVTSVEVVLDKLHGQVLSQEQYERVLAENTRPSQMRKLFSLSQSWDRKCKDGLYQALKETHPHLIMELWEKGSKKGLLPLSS

In general, IC50 refers to the concentration at which inhibition is half-maximal. As for `CCCOc1ccccc1NC(=O)/C=C/C(N)=O`, the values for the IC50 (in [1]; in the test on Saccharomyces cerevisiae) were 8.5 µM (active) and 5.33 µM (active), respectively.

In general, EC50 refers to the concentration giving half of the maximal effect. Turning to `O=C(CSc1nc2ccccc2o1)Nc1ccccc1N1CCCCCC1`, the EC50 in test [2] is 8.41 µM (active). For the same compound, the IC50 in [3] is 2.06 µM (active).

By AC50 is commonly meant the concentration at which the activity in the assay is half-maximal. Consider `CCC(C)Sc1cc(-c2nc3ccccn3c2NC2CCCCC2)ccc1OC` (stereo not drawn), for which the EC50 in [4] was 2.28 µM (active); with Streptococcus it was 7.68 µM (active); on Streptokinase A it was 15 µM (active). Further, the AC50 was 2.82 µM (active) in test [5]; 7.58 µM (active) at CAAX prenyl protease 2; 21.1 µM (active) in [6]; 3.11 µM (active) in [7]; 2.69 µM (active) at Trypsin; 15.7 µM (active) in [8]. Also, the concentration at half-maximal activity (AC50) in [9] was 18.2 µM (active).

Turning to `Cc1ccc(Cn2c(=N)c(C(=O)NC3CCCC3)cc3c(=O)n4ccccc4nc32)cc1`, the EC50 in test [10] is 2.11 µM (active).

Take `Cc1cc(C(=O)NN=Cc2ccc(OC(=O)c3ccco3)cc2)c(C)o1`: the IC50 in [11] is > 150 µM (active).

As for `COc1cccc(N=C2SC(C(=O)Nc3ccc(F)cc3)CC(=O)N2C)c1` (stereo not drawn), the IC50 in [12] and in [13] was > 100 µM (inactive) each time.
